This is an account of results in ChEMBL document CHEMBL3797093, “Optimization of amide-based EP3 receptor antagonists” (Bioorg Med Chem Lett, 2016).

Data set [1] concerns Hepatocyte. Nature of the data set: Drug level in human hepatocytes treated with GSK. In kind it is ADME, cell-based.
Data set [2] can be described thus: Apparent intrinsic clearance in human liver microsomes in presence of NADPH. In kind it is ADME. As to conditions: read-out: CLH(app). A general note: Liver microsomes are vesicles of endoplasmic reticulum, rich in cytochrome P450 enzymes.
In data set [3] the test system is Hepatocyte. In words: Drug metabolism in human hepatocytes assessed as 4-ethyl-3,4-dihydro-2H-benzo[b][1,4]oxazine-6-carboxylic acid formation. The class given is ADME, cell-based.
Data set [4] has as its system Hepatocyte. Nature of the data set: Drug metabolism in human hepatocytes assessed as N-(5-(2,6-dichlorophenyl)-1,3,4-thiadiazol-2-yl)-4-(2-hydroxyethyl)-3,4-dihydro-2H-benzo[b][1,4]oxazine-6-carboxamide formation. In kind it is ADME, cell-based.
The test system of data set [5] is Hepatocyte. Nature of the data set: Drug metabolism in human hepatocytes assessed as N-(5-(2,6-dichlorophenyl)-1,3,4-thiadiazol-2-yl)-3-(ethylamino)-4-hydroxybenzamide formation. In kind it is ADME, cell-based.
The nature of data set [6]: Intrinsic clearance in human hepatocytes. The class given is ADME, cell-based, Hepatocyte. The settings on record: read-out: CLH.

With `CCN1CCOc2ccc(C(=O)O)cc21`, the Drug metabolism result in the data set with Hepatocyte [1] is “metabolite_detected”. Turning to `CCn1ncc2ccc(C(=O)Nc3nnc(C4CC4)s3)cc21`, the microsomal CLint in data set [2] was less than 8 µL/min/mg. In the case of `Cn1ncc2cc(C(=O)Nc3nnc(C4CC4)s3)ccc21`, the microsomal CLint in data set [2] is 21.3 µL/min/mg. On the same count and under the same terms, to `CCn1ncc2c(F)cc(C(=O)Nc3nnc(C4(C)CCN(C(=O)C(C)O)CC4)s3)cc21` (racemic) belongs less than 8 µL/min/mg; to `CCN1CCOc2ccc(C(=O)Nc3nnc(C4CC4)s3)cc21`, 25 µL/min/mg. Still for that read-out and setting: the result for `CCn1ncc2c(Cl)cc(C(=O)Nc3nnc(C4CC4)s3)cc21` reads 10.9 µL/min/mg. Still for that read-out and setting: the result for `CCn1ncc2c(F)cc(C(=O)Nc3nnc(C4(C)CCN(C(C)=O)C4)s3)cc21` (racemic) reads less than 8 µL/min/mg.

Take `CC(C)n1ncc2ccc(C(=O)Nc3nnc(C4CC4)s3)cc21`: the microsomal CLint in data set [2] worked out at 13.2 µL/min/mg. For `O=C(Nc1nnc(-c2c(Cl)cccc2Cl)s1)c1ccc2c(c1)N(CCO)CCO2`, the Drug metabolism entry with Hepatocyte [1] is “metabolite_detected”.

Regarding `Cn1ncc2ncc(C(=O)Nc3nnc(C4CC4)s3)cc21`, the microsomal CLint in data set [2] is less than 8 µL/min/mg.

For `CCN1CCOc2ccc(C(=O)Nc3nnc(-c4c(Cl)cccc4Cl)s3)cc21`, the Drug metabolism entry in the data set with Hepatocyte [3], with Hepatocyte [4] and in the data set with Hepatocyte [5] was “metabolite_detected” throughout. In addition, the CLint scaled in data set [2] turned out to be 39 mL/min/kg; in data set [6], 59 mL/min/kg. As for `CCn1ncc2c(F)cc(C(=O)Nc3nnc(C4(C)CCN(C(=O)C(C)(C)O)CC4)s3)cc21`, the microsomal CLint in data set [2] stood at 20 µL/min/mg. Consider `CCn1ncc2c(F)cc(C(=O)Nc3nnc(C4(C)CCN(C(C)=O)CC4)s3)cc21`, for which the microsomal CLint in data set [2] is less than 8.6 µL/min/mg.

`CCn1ncc2c(F)cc(C(=O)Nc3nnc(C4(C)CN(C(C)=O)C4)s3)cc21`: in data set [2], the microsomal CLint is less than 8 µL/min/mg. On the same count and under the same terms, to `Cn1ncc2ccc(C(=O)Nc3nnc(C4CC4)s3)cc21` belongs less than 8 µL/min/mg; to `CCn1ncc2c(F)cc(C(=O)Nc3nnc(C4(C)CCN(C(=O)CO)CC4)s3)cc21`, less than 8 µL/min/mg. The same measure, in the same setting: to `CCn1ncc2c(F)cc(C(=O)Nc3nnc(C4CC4)s3)cc21` belongs 8.6 µL/min/mg. In the case of `CCNc1cc(C(=O)Nc2nnc(-c3c(Cl)cccc3Cl)s2)ccc1O`, the Drug metabolism entry in the data set on Hepatocyte [1] is “metabolite_detected”.
